This is an account of results in patent US10479792B2, “Compounds” (GlaxoSmithKline Intellectual Property Development Limited, priority 2015, dated 2019).

Holding throughout (assay type): cell-based
Series [1] has as its system Leishmania donovani. In words: Intramacrophage Leishmania donovani assay (Assay 1), average number of amastigotes per cell (potency readout). The settings on record: THP-1, 96 h, amastigotes in PMA-differentiated THP-1 macrophages, 96 h incubation, read-out: pEC50 value against Leishmania donovani (converted). On the procedure:
Assay 1. Intramacrophage Leishmania donovani Assay
The intramacrophage Leishmania assay was performed using a modified version of the method described in De Rycker et al. (Antimicrob Agents Chemother. 2013 July; 57(7):2913-22. Comparison of a high-throughput high-content intracellular Leishmania donovani assay with an axenic amastigote assay. De Rycker M, Hallyburton I, Thomas J, Campbell L, Wyllie S, Joshi D, Cameron S, Gilbert I H, Wyatt P G, Frearson J A, Fairlamb A H, Gray D W.). Procedure: 350 nl of compound was pre-dispensed into 384 well sterile intermediary plates. For single point screening, amphotericin B was added to all wells of column 24 as a positive control (final concentration 2 μM) and DMSO to column 23. For potency determinations, ten-point, one in three dilution curves were created with the highest concentration being 50 μM and on each plate a control curve of amphotericin B was included. Controls were as follows: columns 11 and 12: DMSO, columns 23 and 24: amphotericin B (final concentration 2 μM). To the intermediary plates, 35 μl of THP-1 media was added and plates were shaken for >5 min to ensure complete mixing. THP-1 cells (8,000 per well, 50 μl) were plated into black clear-bottom 384 well plates (Corning) in presence of 20 nM PMA. After 20 min at RT, the plates were incubated at 37° C. under 5% CO2 in a humidified incubator for 75 h. The cells were then washed with […] sterile phosphate buffered saline (PBS) supplemented with 1 mM CaCl2, 0.5 mM MgCl2, 0.1% (w/v) bovine serum albumin (PBS-A) and amastigotes were added to all wells at a multiplicity of infection of 5 (40,000 amastigotes per well). After 40 min at RT, plates were returned to the incubator. Amastigotes were incubated in the presence of THP-1 macrophages for 16 h. Any remaining extracellular amastigotes were subsequently removed with an overflow wash of 1 mL PBS-A per well (wash buffer is being aspirated from the top of the well as it is being dispensed) followed by addition of 25 μl of the compound pre-dilutions using a Fluidx Ipette-pro pipetting station. The final dilution of each compound was 200-fold. Plates were incubated for 96 h and then washed (250 μl PBS-A) and fixed (4% (v/v) formaldehyde-PBS, 30 min, RT). After fixation, the wells were washed with 250 μl PBS, stained (10 μg/mL DAPI, 0.4 μg mL-1 HCS Cellmask Deep Red in PBS+0.1% (v/v) Triton X-100, 30 min, RT) and washed with 250 μl PBS. Finally, PBS+0.05% (v/v) thimerosal was added to the wells, the plates were sealed and imaged on a high-content microscope (GE IN Cell 2000) using a 10× objective. Image analysis was carried out with GE IN Cell Analyzer 1000 Workstation using the “Multi Target Analysis” module. Settings for segmentation were as follows: nuclei: minimum area: 142.384 μm2, sensitivity: 81, method: top-hat; cells: characteristic area: 2500 μm2, sensitivity: 60, method: multiscale top-hat; organelles (amastigotes): granule size 1-3, 3 scales, sensitivity: 90, detection in entire cell. For each well, i) THP-1 cell count (cytotoxicity readout) and ii) average number of amastigotes per cell (potency readout) were calculated, both in terms of pEC50 values.

The subject of series [2] is Leishmania donovani. In words: Leishmania donovani intracellular assay (Assay 5). The settings on record: THP-1, 96 h, eGFP amastigotes in THP-1 cells, 96 h incubation, read-out: pEC50 value against Leishmania donovani (converted). On the procedure: (§1) Assay 5. Leishmania donovani Intracellular Assay
(§2) Compounds were dispensed into black 384-well assay plates (Greiner) by acoustic dispensing (LabCyte ECHO). For potency determinations, eleven-point, one in three dilution curves were generated, with a top concentration of 50 μM. THP-1 human monocytes cells were dispensed in T225 tissue culture flasks and differentiated using 30 nM of PMA, after 24 hours they were infected overnight using Leishmania donovani expressing Green Fluorescent Protein (eGFP) amastigotes in the same T225 tissue culture flasks at a multiplicity of infection of 10. Next, any remaining free amastigotes were washed away with PBS and the infected THP-1 cells were harvested by trypsinisation. The infected cells were then plated into 384-well plates containing the compounds to be tested, at 3000 cells per well in RPMI media with 2% FBS and 25 mM Sodium bicarbonate. After 96 h incubation at 37° C. in presence of 5% CO2, the plates were fixed with 4% formaldehyde for 30 minutes, washed with PBS and stained with 0.1 mg/mL of DAPI for 30 minutes and washed again with PBS. The plates were imaged on a Perkin Elmer Opera high-content imaging system using a 20× air objective with two expositions, one for DAPI stain and other for eGFP. Images were analysed using the Acapella building blocks system (Perkin Elmer). The image analysis algorithm first identified the THP-1 nuclei followed by demarcation of the cytoplasm and identification of intracellular amastigotes. This algorithm reported mean number of parasites per THP-1 cell, the percentage of infected THP-1 cells and the total number of THP-1 cells.

Series [3] deals with THP-1 cells. In words: Leishmania donovani intracellular assay (Assay 5), THP-1 cytotoxicity. Particulars: human, 96 h incubation, read-out: cytotoxicity against THP-1 cells, pEC50 (converted). Here is the method:
as §1, §2

In series [4] the test system is RnH9c2 cells. The series can be described thus: Trypanosoma cruzi intracellular assay (Assay 2), host cell cytotoxicity. The settings on record: rat, H9C2 cardiomyocytes infected with Trypanosoma cruzi, 72 h incubation, read-out: cytotoxicity against RnH9c2 cells, pEC50 (converted). Here is the method:
(§3) Compounds were dispensed into black 384-well assay plates (Greiner) by acoustic dispensing (LabCyte ECHO). For potency determinations, eleven-point, one in three dilution curves were generated, with a top concentration of 50 μM. H9C2 rat cardiomyocytes cells were dispensed in T225 tissue culture flasks and after 4 hours they were infected during 18 hours with T. cruzi trypomastigotes in the same T225 tissue culture flasks at a multiplicity of infection of 1. Next, any remaining free trypomastigotes were washed away with PBS and the infected H9C2 cells were harvested by trypsinisation. The infected H9C2 cells were then plated into 384-well plates containing the compounds to be tested, at 2500 cells per well in DMEM media with 2% FBS, 1% Penicillin/Streptomicin, 2 mM L-Glutamine, 1 mM Na Pyruvate and 25 mM HEPES. After 72 h incubation at 37° C. in presence of 5% CO2, the plates were fixed and stained with 4% formaldehyde and 2 μM Draq5 for 3 hours at room temperature. The plates were imaged on a Perkin Elmer Opera high-content imaging system using a 20× air objective. Images were analyzed using the Acapella building blocks system (Perkin Elmer). The image analysis algorithm first identified the H9C2 nuclei followed by demarcation of the cytoplasm and identification of intracellular amastigotes. This algorithm reported mean number of parasites per H9C2 cell, the percentage of infected H9C2 cells and the total number of H9C2 cells.

Series [5] concerns Trypanosoma cruzi. In words: Trypanosoma cruzi intracellular assay (Assay 2). The settings on record: infected H9C2 rat cardiomyocytes, 72 h incubation, read-out: pEC50 value against Trypanosoma cruzi (converted). Here is the method: as §3

A value given as a limit tells only on which side of the number the result lay.

Take `O=C(Nc1cccc(-c2ccn3c(-c4ccccc4)cnc3n2)c1)N1CCCC1` [Example 2, N-(3-(3-phenylimidazo[1,2-a]pyrimidin-7-yl)phenyl)pyrrolidine-1-carboxamide]: the EC50 in series [1] was 0.251 to 10 µM; in series [2], 0.126 to 10 µM. In series [3], the EC50 at 96 h is 12.6 to 50.1 µM.

Take `O=C(Nc1ccc(F)c(-c2ccn3c(-c4ccccc4)cnc3n2)c1)N1CCCC1` [Example 3, N-(4-fluoro-3-(3-phenylimidazo[1,2-a]pyrimidin-7-yl)phenyl)pyrrolidine-1-carboxamide]: the figures for the EC50 in series [1] and in series [2] were 0.251 to 10 µM and 0.126 to 10 µM, respectively. Besides, in series [3], the EC50 at 96 h was 12.6 to 50.1 µM.

In the case of `O=C(Nc1ccc(F)c(-c2ccn3c(N4CCCCC4)cnc3n2)c1)N1CCCC1` [Example 5, N-(4-fluoro-3-(3-(piperidin-1-yl)imidazo[1,2-a]pyrimidin-7-yl)phenyl)pyrrolidine-1-carboxamide], the results for the EC50 in series [1] and in series [2] were 0.251 to 10 µM and 0.126 to 10 µM, respectively. Moreover, the EC50 at 96 h in series [3] is 12.6 to 50.1 µM.

Regarding `O=C(Nc1ccc(F)c(-c2cnn3c(-c4ccccc4)cnc3n2)c1)N1CCCC1` [Example 7, N-(4-fluoro-3-(7-phenylimidazo[1,2-b][1,2,4]triazin-3-yl)phenyl)pyrrolidine-1-carboxamide], the EC50 in series [1] was 0.251 to 10 µM. For the same compound, the EC50 at 72 h in series [4] was 20 µM.

As to `O=C(Nc1ccc(F)c(-c2ccn3ccnc3n2)c1)N1CCCC1` [Example 16, N-(4-fluoro-3-(imidazo[1,2-a]pyrimidin-7-yl)phenyl)pyrrolidine-1-carboxamide], the EC50 is 12.6 to 20 µM in series [1] and 12.6 to 39.8 µM in series [2]. In addition, the EC50 at 96 h in series [3] was 12.6 to 50.1 µM.

With `CC(C)Cc1cnc2nc(-c3cc(NC(=O)N4CCCC4)ccc3F)ccn12` [Example 17, N-(4-fluoro-3-(3-isobutylimidazo[1,2-a]pyrimidin-7-yl)phenyl)pyrrolidine-1-carboxamide], the EC50 in series [1] was 0.251 to 10 µM; in series [2] it was 0.126 to 10 µM. The EC50 at 72 h in series [4] was 5.01 µM.

As for `O=C(Nc1ccc(F)c(-c2ccn3c(C4CCOCC4)cnc3n2)c1)N1CCCC1` [Example 19, N-(4-fluoro-3-(3-(tetrahydro-2H-pyran-4-yl)imidazo[1,2-a]pyrimidin-7-yl)phenyl)pyrrolidine-1-carboxamide], the EC50 is 0.251 to 10 µM in series [1] and 0.126 to 10 µM in series [2]. In addition, the EC50 at 72 h in series [4] is 39.8 µM.

As for `O=C(Nc1ccc(F)c(-c2ccn3c(N4CCOCC4)cnc3n2)c1)N1CC[C@H](F)C1` [Example 23a], the figures for the EC50 in series [1], in series [5] and in series [2] were more than 50.1 µM, 31.6 µM and more than 50.1 µM, respectively.

`O=C(Nc1ccc(F)c(-c2ccn3c(-c4ccccn4)cnc3n2)c1)N1CCCC1` [Example 26, N-(4-fluoro-3-(3-(pyridin-2-yl)imidazo[1,2-a]pyrimidin-7-yl)phenyl)pyrrolidine-1-carboxamide]: the EC50 in series [1] was 0.251 to 10 µM; in series [2], 0.126 to 10 µM. Further, the EC50 at 72 h in series [4] is 39.8 µM. The EC50 at 96 h in series [3] was 12.6 to 50.1 µM.

In the case of `C[C@H]1CCCN1C(=O)Nc1ccc(F)c(-c2ccn3c(N4CCOCC4)cnc3n2)c1` [Example 33a], the results for the EC50 in series [1], in series [5] and in series [2] were more than 50.1 µM, 12.6 µM and 12.6 to 39.8 µM, respectively.

As for `Cc1cccc(-c2cnc3nc(-c4cc(NC(=O)N5CCCC5)ccc4F)ccn23)n1` [Example 37, N-(4-fluoro-3-(3-(6-methylpyridin-2-yl)imidazo[1,2-a]pyrimidin-7-yl)phenyl)pyrrolidine-1-carboxamide], in series [4], the EC50 at 72 h is 25.1 µM. Further, the EC50 in series [2] was 0.126 to 10 µM. Also, in series [3], the EC50 at 96 h was 12.6 to 50.1 µM.

In the case of `CC1CN(C(=O)Nc2ccc(F)c(-c3ccn4c(N5CCOCC5)cnc4n3)c2)C1` [Example 49, N-(4-fluoro-3-(3-morpholinoimidazo[1,2-a]pyrimidin-7-yl)phenyl)-3-methylazetidine-1-carboxamide], the results for the EC50 in series [1] and in series [2] were 12.6 to 20 µM and 0.126 to 10 µM, respectively.

Take `O=C(Nc1ccc(F)c(-c2cc(C(=O)N3CCCC3)n3ccnc3n2)c1)N1CCCC1` [Example 50, N-(4-fluoro-3-(5-(pyrrolidine-1-carbonyl)imidazo[1,2-a]pyrimidin-7-yl)phenyl)pyrrolidine-1-carboxamide]: the EC50 in series [1] is more than 50.1 µM; in series [2], 12.6 to 39.8 µM.
